The text below walks through data of patent US12678428B2, “Synergistic composition for inhibiting vascular calcification” (Celagenex Research (India) Pvt. Ltd., priority 2021, dated 2026).

Series [1] in a line: In vitro cytotoxicity by MTT assay in HaCaT cells. The settings on record: human, HaCaT keratinocyte cells. Type of series: cell-based. The protocol:
The in vitro cytotoxicity was performed on Human Keratinocytes (HaCaT) cell line to find the non-toxic concentrations of the test substances by MTT assay and evaluate their cytoprotective activity against advanced glycation end product (AGE) induced oxidative stress in Human Keratinocytes.
About 10 mg of the test substance was dissolved separately with 1 mL DMEM-HG supplemented with 2% inactivated FBS to obtain a stock solution of 10 mg/mL concentration and sterilized by 0.22μ syringe filtration. Dilute the stock to desired concentrations for carrying out further studies.
HaCaT (Human Keratinocytes cells) was procured from AddexBio, U.S. Stock cells were cultured in DMEM-HG supplemented with 10% inactivated Fetal Bovine Serum (FBS), penicillin (100 IU/mL), streptomycin (100 μg/mL) and amphotericin B (5 μg/mL) in humidified atmosphere of 5% CO2 at 37° C. until confluent. The cells were dissociated with TPVG solution (0.2% trypsin, 0.02% EDTA, 0.05% glucose in PBS). The stock cultures were grown in 25 cm^2 culture flasks and all experiments were carried out in 96 microtitre plates (Tarsons India Pvt. Ltd., Kolkata, India).
The cell culture monolayer was trypsinized and the cell count was adjusted to 1.0×10^5 cells/mL using DMEM-HG containing 10% FBS. To each well of the 96 well microtitre plate, 0.1 mL of the diluted cell suspension was added. After 24 hours, when a partial monolayer was formed, the supernatant was flicked off, the monolayer was washed once with PBS and 100 μL of different concentrations of test substance was added. The plate was then incubated at 37° C. for 24 hours in a 5% CO2 atmosphere, and microscopic examination was carried out and observations were noted after 24 h time.
After 24 hours of incubation, the drug solution in the wells was discarded and 50 μL of MTT in DPBS was added to each well. The plate was gently shaken and incubated for 3 hours at 37° C. in a 5% CO2 atmosphere. The supernatant was removed and 100 μL of DMSO was added and the plate was gently shaken to solubilize the formed formazan. The absorbance was measured using a micro plate reader at a wavelength of 570 nm. The percentage growth inhibition was calculated using the standard formula. The concentration of test substance, needed to inhibit the growth of the cell by 50% i.e., CTC50 values were generated from the dose-response curves.
A general note: Tetrazolium assays rely on reduction of a dye to a coloured formazan, in cell work by metabolically active cells.

Series [2] deals with Human Keratinocytes cell line (HaCaT). The series is described as follows: Cytoprotective activity against AGE (methylglyoxal) induced oxidative stress, tryphan blue dye exclusion assay. The settings on record: HaCaT cells treated with Methylglyoxal and test substance, 24 h; Metformin 5 mg; Test I 3.5 mg; Test II 0.5 mg; Test III 5 mg + 0.02 mg; Test IV 0.2 mg + 0.2 mg; Test V 3.5 mg + 0.5 mg. Type of series: cell-based. How it is done: (§1) The purpose of this study is to evaluate cytoprotective activity of test substance against advanced glycation end product (AGE) induced oxidative stress in Human Keratinocytes cell line (HaCaT). About 10 mg of the test substance was dissolved separately with 1 mL DMEM-HG supplemented with 2% inactivated FBS to obtain a stock solution of 10 mg/mL concentration and sterilized by 0.22μ syringe filtration. Dilute the stock to desired concentrations for carrying out further studies. HaCaT (Human Keratinocytes cells) was procured from AddexBio, U.S. Stock cells were cultured in DMEM-HG supplemented with 10% inactivated Fetal Bovine Serum (FBS), penicillin (100 IU/mL), streptomycin (100 μg/mL) and amphotericin B (5 μg/mL) in humidified atmosphere of 5% CO2 at 37° C. until confluent. The cells were dissociated with TPVG solution (0.2% trypsin, 0.02% EDTA, 0.05% glucose in PBS). The stock cultures were grown in 25 cm^2 culture flasks and all experiments were carried out in 96 microtitre plates (Tarsons India Pvt. Ltd., Kolkata, India). [table] The monolayer cell culture was trypsinized and the cell count was adjusted to 1.5×10^5 cells/mL using DMEM-HG containing 10% FBS. To each well of the 6 well plates, 2 mL of the diluted cell suspension was added. After 24 hours, when a partial monolayer was formed, supernatant was removed and washed the monolayer once with PBS and 1 mL of different test concentrations and combinations of test substances were added. The plate was then incubated at 37° C. for 24 h in a 5% CO2 atmosphere, and microscopic examination was carried out and observations were noted after 24 hours time. After 24 hours, the media was discarded and cells were trypsinized and pelleted by centrifugation, suspended in 1 mL of fresh media and performed dye exclusion test, i.e., mixed equal volume of cells suspended media and Tryphan blue. Viable and non-viable cells were counted using haemocytometer and values were recorded, and then percentage cell viability was calculated.

Test in series [3]: as above
The settings on record: human, HaCaT keratinocyte cells, HaCaT cells treated only with Methylglyoxal 300 μM (positive control). Type of series: cell-based, Human. The protocol:
as §1

With `Cc1ncc(CO)c(CN)c1O` [2-methyl-4-aminomethyl-5-hydroxymethyl-3-Pyridinol], the cytotoxicity at 24 h, 0.125 mg/mL in series [1] (test concentration 0.125 mg/mL) was 4.55%. The same molecule displayed a cytotoxicity at 24 h, 0.25 mg/mL in series [1] (test concentration 0.25 mg/mL) of 5.68%. This molecule also displayed a cytotoxicity at 24 h, 0.5 mg/mL in series [1] (test concentration 0.5 mg/mL) of 25.6%. For the same molecule, in series [1] (test concentration 1 mg/mL), the cytotoxicity at 24 h, 1 mg/mL was 63.4%. For the same molecule, the cytotoxicity at 24 h, 2 mg/mL in series [1] (test concentration 2 mg/mL) came out at 67%. Further, in series [1] (test concentration 3 mg/mL), the cytotoxicity at 24 h, 3 mg/mL stood at 67.5%. In series [1] (test concentration 4 mg/mL), the cytotoxicity at 24 h, 4 mg/mL was determined as 75.8%. This molecule also yielded a cytotoxicity at 24 h, 5 mg/mL in series [1] (test concentration 5 mg/mL) of 76%. In addition, the “% Viability” value in series [2] was 41.23%.
Take `CN(C)C(=N)N=C(N)N` [Metformin, reference compound]: the “% Viability” value in series [2] amounted to 70.79%.
What is called viability is a per cent measure of how many cells are alive, often set against a control. Turning to `CC(=O)C=O` [Methylglyoxal, reference compound], in series [3], the viability at 24 h, 300 μM was about 38.8%.
Turning to `CC(=O)NCCS(=O)(=O)O.[Mg]` [Test I, Magnesium 2-acetylamino ethane sulfonic acid], the “% Viability” value in series [2] was determined as 42.39%.
